ChEMBL document CHEMBL4020788, “Synthesis, SAR and molecular docking studies of benzo[d]thiazole-hydrazones as potential antibacterial and antifungal agents” (2017)
Activity calls are given as the source filed them. The rule behind the calls is not given here.

How the values were obtained:
Type in all cases: functional
Staphylococcus aureus [1] = assay: Antibacterial activity against Staphylococcus aureus at 25 ug/ml after 24 hrs by agar well diffusion method
Staphylococcus aureus [2] = assay: Antibacterial activity against Staphylococcus aureus at 50 ug/ml after 24 hrs by agar well diffusion method
Staphylococcus aureus [3] = assay: Antibacterial activity against Staphylococcus aureus at 75 ug/ml after 24 hrs by agar well diffusion method
Staphylococcus aureus [4] = assay: Antibacterial activity against Staphylococcus aureus at 100 ug/ml after 24 hrs by agar well diffusion method
Bacillus subtilis [5] = assay: Antibacterial activity against Bacillus subtilis at 25 ug/ml after 24 hrs by agar well diffusion method
Bacillus subtilis [6] = assay: Antibacterial activity against Bacillus subtilis at 50 ug/ml after 24 hrs by agar well diffusion method
Bacillus subtilis [7] = assay: Antibacterial activity against Bacillus subtilis at 75 ug/ml after 24 hrs by agar well diffusion method
Bacillus subtilis [8] = assay: Antibacterial activity against Bacillus subtilis at 100 ug/ml after 24 hrs by agar well diffusion method
Escherichia coli [9] = assay: Antibacterial activity against Escherichia coli at 25 ug/ml after 24 hrs by agar well diffusion method
Escherichia coli [10] = assay: Antibacterial activity against Escherichia coli at 50 ug/ml after 24 hrs by agar well diffusion method
Escherichia coli [11] = assay: Antibacterial activity against Escherichia coli at 75 ug/ml after 24 hrs by agar well diffusion method; settings: for zone of inhibition at 75 µg/mL: read-out: DIZ
Escherichia coli [12] = assay: Antibacterial activity against Escherichia coli at 100 ug/ml after 24 hrs by agar well diffusion method; settings: for zone of inhibition at 100 µg/mL: read-out: DIZ
Klebsiella pneumoniae [13] = assay: Antibacterial activity against Klebsiella pneumoniae at 25 ug/ml after 24 hrs by agar well diffusion method
Klebsiella pneumoniae [14] = assay: Antibacterial activity against Klebsiella pneumoniae at 50 ug/ml after 24 hrs by agar well diffusion method
Klebsiella pneumoniae [15] = assay: Antibacterial activity against Klebsiella pneumoniae at 75 ug/ml after 24 hrs by agar well diffusion method
Klebsiella pneumoniae [16] = assay: Antibacterial activity against Klebsiella pneumoniae at 100 ug/ml after 24 hrs by agar well diffusion method
Staphylococcus aureus [17] = assay: Antibacterial activity against methicillin resistant Staphylococcus aureus MRSA090 at 25 ug/ml after 24 hrs by agar well diffusion method; settings: for zone of inhibition at 25 µg/mL: MRSA090, 24 h, read-out: DIZ
Staphylococcus aureus [18] = assay: Antibacterial activity against methicillin resistant Staphylococcus aureus MRSA090 at 50 ug/ml after 24 hrs by agar well diffusion method; settings: for zone of inhibition at 50 µg/mL: MRSA090, 24 h, read-out: DIZ
Staphylococcus aureus [19] = assay: Antibacterial activity against methicillin resistant Staphylococcus aureus MRSA090 at 75 ug/ml after 24 hrs by agar well diffusion method; settings: for zone of inhibition at 75 µg/mL: MRSA090, 24 h, read-out: DIZ
Staphylococcus aureus [20] = assay: Antibacterial activity against methicillin resistant Staphylococcus aureus MRSA090 at 100 ug/ml after 24 hrs by agar well diffusion method; settings: for zone of inhibition at 100 µg/mL: MRSA090, 24 h, read-out: DIZ
Aspergillus niger [21] = assay: Antifungal activity against Aspergillus niger at 25 ug/ml after 48 hrs by agar well diffusion method
Aspergillus niger [22] = assay: Antifungal activity against Aspergillus niger at 50 ug/ml after 48 hrs by agar well diffusion method
Aspergillus niger [23] = assay: Antifungal activity against Aspergillus niger at 75 ug/ml after 48 hrs by agar well diffusion method
Aspergillus niger [24] = assay: Antifungal activity against Aspergillus niger at 100 ug/ml after 48 hrs by agar well diffusion method
Fusarium verticillioides [25] = assay: Antifungal activity against Fusarium moniliforme at 25 ug/ml after 48 hrs by agar well diffusion method; settings: for zone of inhibition at 25 µg/mL: read-out: DIZ
Fusarium verticillioides [26] = assay: Antifungal activity against Fusarium moniliforme at 50 ug/ml after 48 hrs by agar well diffusion method; settings: for zone of inhibition at 50 µg/mL: read-out: DIZ
Fusarium verticillioides [27] = assay: Antifungal activity against Fusarium moniliforme at 75 ug/ml after 48 hrs by agar well diffusion method; settings: for zone of inhibition at 75 µg/mL: read-out: DIZ
Fusarium verticillioides [28] = assay: Antifungal activity against Fusarium moniliforme at 100 ug/ml after 48 hrs by agar well diffusion method; settings: for zone of inhibition at 100 µg/mL: read-out: DIZ
Fusarium oxysporum [29] = assay: Antifungal activity against Fusarium oxysporum at 25 ug/ml after 48 hrs by agar well diffusion method
Fusarium oxysporum [30] = assay: Antifungal activity against Fusarium oxysporum at 50 ug/ml after 48 hrs by agar well diffusion method
Fusarium oxysporum [31] = assay: Antifungal activity against Fusarium oxysporum at 75 ug/ml after 48 hrs by agar well diffusion method; settings: for zone of inhibition at 75 µg/mL: read-out: DIZ
Fusarium oxysporum [32] = assay: Antifungal activity against Fusarium oxysporum at 100 ug/ml after 48 hrs by agar well diffusion method; settings: for zone of inhibition at 100 µg/mL: read-out: DIZ

## Cc1cccc2nc(N/N=C/c3ccc[nH]3)sc12
Staphylococcus aureus [1]
  diameter of the inhibition zone (DIZ): inactive
Staphylococcus aureus [2]
  diameter of the inhibition zone (DIZ): inactive
Staphylococcus aureus [3]
  diameter of the inhibition zone (DIZ): inactive
Staphylococcus aureus [4]
  diameter of the inhibition zone (DIZ): inactive
Bacillus subtilis [5]
  diameter of the inhibition zone (DIZ): inactive
Bacillus subtilis [6]
  diameter of the inhibition zone (DIZ): inactive
Bacillus subtilis [7]
  diameter of the inhibition zone (DIZ): inactive
Bacillus subtilis [8]
  diameter of the inhibition zone (DIZ): inactive
Escherichia coli [9]; read-out: DIZ
  zone of inhibition at 25 µg/mL: 12 mm
Escherichia coli [10]; read-out: DIZ
  zone of inhibition at 50 µg/mL: 17 mm
Escherichia coli [11]
  zone of inhibition at 75 µg/mL: 22 mm
Escherichia coli [12]
  zone of inhibition at 100 µg/mL: 24 mm
Klebsiella pneumoniae [13]; read-out: DIZ
  zone of inhibition at 25 µg/mL: 10 mm
Klebsiella pneumoniae [14]; read-out: DIZ
  zone of inhibition at 50 µg/mL: 14 mm
Klebsiella pneumoniae [15]; read-out: DIZ
  zone of inhibition at 75 µg/mL: 19 mm
Klebsiella pneumoniae [16]; read-out: DIZ
  zone of inhibition at 100 µg/mL: 23 mm
Staphylococcus aureus [17]
  zone of inhibition at 25 µg/mL: 4 mm
Staphylococcus aureus [18]
  zone of inhibition at 50 µg/mL: 8 mm
Staphylococcus aureus [19]
  zone of inhibition at 75 µg/mL: 11 mm
Staphylococcus aureus [20]
  zone of inhibition at 100 µg/mL: 17 mm
Aspergillus niger [21]
  diameter of the inhibition zone (DIZ): inactive
Aspergillus niger [22]
  diameter of the inhibition zone (DIZ): inactive
Aspergillus niger [23]
  diameter of the inhibition zone (DIZ): inactive
Aspergillus niger [24]
  diameter of the inhibition zone (DIZ): inactive
Fusarium verticillioides [25]
  zone of inhibition at 25 µg/mL: 4 mm
Fusarium verticillioides [26]
  zone of inhibition at 50 µg/mL: 9 mm
Fusarium verticillioides [27]
  zone of inhibition at 75 µg/mL: 14 mm
Fusarium verticillioides [28]
  zone of inhibition at 100 µg/mL: 18 mm
Fusarium oxysporum [29]
  diameter of the inhibition zone (DIZ): inactive
Fusarium oxysporum [30]
  diameter of the inhibition zone (DIZ): inactive
Fusarium oxysporum [31]
  zone of inhibition at 75 µg/mL: 10 mm
Fusarium oxysporum [32]
  zone of inhibition at 100 µg/mL: 15 mm

## CC/C=N/Nc1nc2cccc(C)c2s1
Staphylococcus aureus [1]
  diameter of the inhibition zone (DIZ): inactive
Staphylococcus aureus [2]
  diameter of the inhibition zone (DIZ): inactive
Staphylococcus aureus [3]
  diameter of the inhibition zone (DIZ): inactive
Staphylococcus aureus [4]
  diameter of the inhibition zone (DIZ): inactive
Bacillus subtilis [5]
  diameter of the inhibition zone (DIZ): inactive
Bacillus subtilis [6]
  diameter of the inhibition zone (DIZ): inactive
Bacillus subtilis [7]
  diameter of the inhibition zone (DIZ): inactive
Bacillus subtilis [8]
  diameter of the inhibition zone (DIZ): inactive
Escherichia coli [9]
  diameter of the inhibition zone (DIZ): inactive
Escherichia coli [10]
  diameter of the inhibition zone (DIZ): inactive
Escherichia coli [11]
  diameter of the inhibition zone (DIZ): inactive
Escherichia coli [12]
  diameter of the inhibition zone (DIZ): inactive
Klebsiella pneumoniae [13]
  diameter of the inhibition zone (DIZ): inactive
Klebsiella pneumoniae [14]
  diameter of the inhibition zone (DIZ): inactive
Klebsiella pneumoniae [15]
  diameter of the inhibition zone (DIZ): inactive
Klebsiella pneumoniae [16]
  diameter of the inhibition zone (DIZ): inactive
Staphylococcus aureus [17]
  diameter of the inhibition zone (DIZ): inactive
Staphylococcus aureus [18]
  diameter of the inhibition zone (DIZ): inactive
Staphylococcus aureus [19]
  diameter of the inhibition zone (DIZ): inactive
Staphylococcus aureus [20]
  diameter of the inhibition zone (DIZ): inactive
Aspergillus niger [21]
  diameter of the inhibition zone (DIZ): inactive
Aspergillus niger [22]
  diameter of the inhibition zone (DIZ): inactive
Aspergillus niger [23]
  diameter of the inhibition zone (DIZ): inactive
Aspergillus niger [24]
  diameter of the inhibition zone (DIZ): inactive
Fusarium verticillioides [25]
  diameter of the inhibition zone (DIZ): inactive
Fusarium verticillioides [26]
  diameter of the inhibition zone (DIZ): inactive
Fusarium verticillioides [27]
  diameter of the inhibition zone (DIZ): inactive
Fusarium verticillioides [28]
  diameter of the inhibition zone (DIZ): inactive
Fusarium oxysporum [29]
  diameter of the inhibition zone (DIZ): inactive
Fusarium oxysporum [30]
  diameter of the inhibition zone (DIZ): inactive
Fusarium oxysporum [31]
  diameter of the inhibition zone (DIZ): inactive
Fusarium oxysporum [32]
  diameter of the inhibition zone (DIZ): inactive

## Cc1cccc2nc(N/N=C/c3ccc(Cl)cc3)sc12
Staphylococcus aureus [1]; read-out: DIZ
  zone of inhibition at 25 µg/mL: 5 mm
Staphylococcus aureus [2]; read-out: DIZ
  zone of inhibition at 50 µg/mL: 9 mm
Staphylococcus aureus [3]; read-out: DIZ
  zone of inhibition at 75 µg/mL: 11 mm
Staphylococcus aureus [4]; read-out: DIZ
  zone of inhibition at 100 µg/mL: 13 mm
Bacillus subtilis [5]; read-out: DIZ
  zone of inhibition at 25 µg/mL: 7 mm
Bacillus subtilis [6]; read-out: DIZ
  zone of inhibition at 50 µg/mL: 9 mm
Bacillus subtilis [7]; read-out: DIZ
  zone of inhibition at 75 µg/mL: 11 mm
Bacillus subtilis [8]; read-out: DIZ
  zone of inhibition at 100 µg/mL: 14 mm
Escherichia coli [9]
  diameter of the inhibition zone (DIZ): inactive
Escherichia coli [10]
  diameter of the inhibition zone (DIZ): inactive
Escherichia coli [11]
  zone of inhibition at 75 µg/mL: 6 mm
Escherichia coli [12]
  zone of inhibition at 100 µg/mL: 10 mm
Klebsiella pneumoniae [13]
  diameter of the inhibition zone (DIZ): inactive
Klebsiella pneumoniae [14]
  diameter of the inhibition zone (DIZ): inactive
Klebsiella pneumoniae [15]
  diameter of the inhibition zone (DIZ): inactive
Klebsiella pneumoniae [16]
  diameter of the inhibition zone (DIZ): inactive
Staphylococcus aureus [17]
  zone of inhibition at 25 µg/mL: 4 mm
Staphylococcus aureus [18]
  zone of inhibition at 50 µg/mL: 9 mm
Staphylococcus aureus [19]
  zone of inhibition at 75 µg/mL: 12 mm
Staphylococcus aureus [20]
  zone of inhibition at 100 µg/mL: 15 mm
Aspergillus niger [21]; read-out: DIZ
  zone of inhibition at 25 µg/mL: 8 mm
Aspergillus niger [22]; read-out: DIZ
  zone of inhibition at 50 µg/mL: 13 mm
Aspergillus niger [23]; read-out: DIZ
  zone of inhibition at 75 µg/mL: 16 mm
Aspergillus niger [24]; read-out: DIZ
  zone of inhibition at 100 µg/mL: 19 mm
Fusarium verticillioides [25]
  zone of inhibition at 25 µg/mL: 11 mm
Fusarium verticillioides [26]
  zone of inhibition at 50 µg/mL: 14 mm
Fusarium verticillioides [27]
  zone of inhibition at 75 µg/mL: 20 mm
Fusarium verticillioides [28]
  zone of inhibition at 100 µg/mL: 26 mm
Fusarium oxysporum [30]; read-out: DIZ
  zone of inhibition at 50 µg/mL: 11 mm
Fusarium oxysporum [31]
  zone of inhibition at 75 µg/mL: 14 mm
Fusarium oxysporum [32]
  zone of inhibition at 100 µg/mL: 17 mm
